Organism: Rattus norvegicus
Experiment: DrugMatrix - Regimen: Daily Repeat
Assay type: toxicity, organism-based, Sprague-Dawley
Parameters: regimen Daily Repeat, gender Male, age 6-8 weeks
Conditions: in vivo, vehicle 100 % SALINE; for ABSOLUTE BASOPHIL / ABSOLUTE EOSINOPHIL / ABSOLUTE LYMPHOCYTE / ABSOLUTE MONOCYTE / ABSOLUTE SEGMENTED NEUTROPHIL / BASOPHIL / EOSINOPHIL / ERYTHROCYTE COUNT / HEMOGLOBIN / LEUKOCYTE COUNT / LYMPHOCYTE / MEAN CORPUSCULAR HEMOGLOBIN / MEAN CORPUSCULAR HEMOGLOBIN CONCENTRATION / MEAN CORPUSCULAR VOLUME / NUCLEATED RED BLOOD CELLS / PLATELET COUNT: tissue Blood
[1] = iv, 0.004 mg/kg, 72 h, dose level Low, time 3 day
[2] = iv, 0.004 mg/kg, 72 h, tissue Plasma, dose level Low, time 3 day
[3] = iv, 0.004 mg/kg, 120 h, dose level Low, time 5 day
[4] = iv, 0.004 mg/kg, 120 h, tissue Plasma, dose level Low, time 5 day
[5] = sc, 0 mg/kg, 72 h, route mini-PUMP - SUBCUTANEOUS, dose level Control, time 3 day
[6] = sc, 0 mg/kg, 72 h, tissue Plasma, route mini-PUMP - SUBCUTANEOUS, dose level Control, time 3 day

SMILES: CNC[C@H](O)c1ccc(O)c(O)c1 [EPINEPHRINE]
- ABSOLUTE BASOPHIL [1]: 0 CELLS/uL
- ABSOLUTE EOSINOPHIL [1]: 127.67 CELLS/uL
- ABSOLUTE LYMPHOCYTE [1]: 11755 CELLS/uL
- ABSOLUTE MONOCYTE [1]: 0 CELLS/uL
- ABSOLUTE SEGMENTED NEUTROPHIL [1]: 884 CELLS/uL
- BASOPHIL [1]: 0%
- EOSINOPHIL [1]: 1%
- ERYTHROCYTE COUNT [1]: 5.71 x10E6/uL
- HEMOGLOBIN [1]: 14.07 G/DL
- LEUKOCYTE COUNT [1]: 12.77 x10E3/uL
- LYMPHOCYTE [1]: 92%
- MEAN CORPUSCULAR HEMOGLOBIN [1]: 24.73 pg
- MEAN CORPUSCULAR HEMOGLOBIN CONCENTRATION [1]: 37.8 G/DL
- MEAN CORPUSCULAR VOLUME [1]: 65.37 fL
- NUCLEATED RED BLOOD CELLS [1]: 0 /100WBC
- PLATELET COUNT [1]: 1271 x10E3/uL
- ALANINE AMINOTRANSFERASE [2]: 57.33 u/L
- ALBUMIN [2]: 4.43 G/DL
- ALKALINE PHOSPHATASE [2]: 425 u/L
- ASPARTATE AMINOTRANSFERASE [2]: 75 u/L
- BLOOD UREA NITROGEN [2]: 14 mg/dL
- CARBON DIOXIDE [2]: 27 mmol/L
- CHLORIDE [2]: 101.33 MEQ/L
- CHOLESTEROL [2]: 80 mg/dL
- CREATINE PHOSPHOKINASE [2]: 187.33 u/L
- CREATININE [2]: 0.23 mg/dL
- LACTATE DEHYDROGENASE [2]: 118.67 u/L
- LIPASE [2]: 9 u/L
- PHOSPHORUS [2]: 12.7 mg/dL
- POTASSIUM [2]: 6.89 MEQ/L
- SODIUM [2]: 145.07 MEQ/L
- TOTAL PROTEIN [2]: 6.1 G/DL
- ABSOLUTE BASOPHIL [3]: 0 CELLS/uL
- ABSOLUTE EOSINOPHIL [3]: 147.67 CELLS/uL
- ABSOLUTE LYMPHOCYTE [3]: 10984 CELLS/uL
- ABSOLUTE MONOCYTE [3]: 0 CELLS/uL
- ABSOLUTE SEGMENTED NEUTROPHIL [3]: 1368.33 CELLS/uL
- BASOPHIL [3]: 0%
- EOSINOPHIL [3]: 1%
- ERYTHROCYTE COUNT [3]: 5.59 x10E6/uL
- HEMOGLOBIN [3]: 13.2 G/DL
- LEUKOCYTE COUNT [3]: 12.5 x10E3/uL
- LYMPHOCYTE [3]: 87.33%
- MEAN CORPUSCULAR HEMOGLOBIN [3]: 23.63 pg
- MEAN CORPUSCULAR HEMOGLOBIN CONCENTRATION [3]: 37.23 G/DL
- MEAN CORPUSCULAR VOLUME [3]: 63.47 fL
- NUCLEATED RED BLOOD CELLS [3]: 0 /100WBC
- PLATELET COUNT [3]: 1309.33 x10E3/uL
- ALANINE AMINOTRANSFERASE [4]: 48 u/L
- ALBUMIN [4]: 4.47 G/DL
- ALKALINE PHOSPHATASE [4]: 367.33 u/L
- ASPARTATE AMINOTRANSFERASE [4]: 79 u/L
- BLOOD UREA NITROGEN [4]: 16 mg/dL
- CARBON DIOXIDE [4]: 24 mmol/L
- CHLORIDE [4]: 103 MEQ/L
- CHOLESTEROL [4]: 67.33 mg/dL
- CREATINE PHOSPHOKINASE [4]: 204.67 u/L
- CREATININE [4]: 0.23 mg/dL
- LACTATE DEHYDROGENASE [4]: 102.67 u/L
- LIPASE [4]: 8 u/L
- PHOSPHORUS [4]: 13.37 mg/dL
- POTASSIUM [4]: 6.61 MEQ/L
- SODIUM [4]: 145.67 MEQ/L
- TOTAL PROTEIN [4]: 6.3 G/DL
- ABSOLUTE BASOPHIL [5]: 0 CELLS/uL
- ABSOLUTE EOSINOPHIL [5]: 77.17 CELLS/uL
- ABSOLUTE LYMPHOCYTE [5]: 14293.83 CELLS/uL
- ABSOLUTE MONOCYTE [5]: 354 CELLS/uL
- ABSOLUTE SEGMENTED NEUTROPHIL [5]: 1658.33 CELLS/uL
- BASOPHIL [5]: 0%
- EOSINOPHIL [5]: 0.5%
- ERYTHROCYTE COUNT [5]: 6.27 x10E6/uL
- HEMOGLOBIN [5]: 13.4 G/DL
- LEUKOCYTE COUNT [5]: 16.38 x10E3/uL
- LYMPHOCYTE [5]: 87.17%
- MEAN CORPUSCULAR HEMOGLOBIN [5]: 21.42 pg
- MEAN CORPUSCULAR HEMOGLOBIN CONCENTRATION [5]: 36.27 G/DL
- MEAN CORPUSCULAR VOLUME [5]: 59.03 fL
- NUCLEATED RED BLOOD CELLS [5]: 0 /100WBC
- PLATELET COUNT [5]: 904.67 x10E3/uL
- ALANINE AMINOTRANSFERASE [6]: 48.33 u/L
- ALBUMIN [6]: 3.82 G/DL
- ALKALINE PHOSPHATASE [6]: 282.33 u/L
- ASPARTATE AMINOTRANSFERASE [6]: 86.83 u/L
- BLOOD UREA NITROGEN [6]: 20.17 mg/dL
- CARBON DIOXIDE [6]: 34.67 mmol/L
- CHLORIDE [6]: 102 MEQ/L
- CHOLESTEROL [6]: 71.5 mg/dL
- CREATININE [6]: 0.2 mg/dL
- LACTATE DEHYDROGENASE [6]: 159 u/L
- LIPASE [6]: 9 u/L
- PHOSPHORUS [6]: 10.12 mg/dL
- POTASSIUM [6]: 5.92 MEQ/L
- SODIUM [6]: 147.8 MEQ/L
- TOTAL BILIRUBIN [6]: 0.2 mg/dL

Reference: ChEMBL document CHEMBL3885881, “DrugMatrix”
